Test results from the supplement of paper PMC10307832.

Assays:
Experiment in all cases: relative viability (nuclei count vs DMSO), 5 days (fraction); higher = more cells survive
[1] = system: A-427
Summary of the method: (§1)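 For relative viability, nuclei counts in treated wells were divided by those in vehicle wells. Lung cancer cell lines had been pin-tool dosed in 1536-well plates the day after seeding and cultured for 5 days, then fixed and stained in one step (final 0.05% Triton X-100, 1% formaldehyde, 1 ug/ml Hoechst) and imaged at 4×. Doses were one drug alone or a fixed anchor-drug dose plus five library-drug doses (not always all listed) in √10 steps, and values are duplicate-plate medians.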

[2] = system: COR-L 105
Summary of the method: as §1

[3] = system: COR-L23
Summary of the method: as §1

[4] = system: EKVX
Summary of the method: as §1

[5] = system: EMC-BAC-2
Summary of the method: as §1

[6] = system: EPLC-272H
Summary of the method: as §1

[7] = system: HCC-44
Summary of the method: as §1

[8] = system: HCC-827
Summary of the method: as §1

[9] = system: LCLC-103H
Summary of the method: as §1

[10] = system: LU99A
Summary of the method: as §1

[11] = system: NCI-H1437
Summary of the method: as §1

[12] = system: NCI-H1666
Summary of the method: as §1

[13] = system: NCI-H1792
Summary of the method: as §1

[14] = system: NCI-H2009
Summary of the method: as §1

[15] = system: NCI-H2023
Summary of the method: as §1

[16] = system: NCI-H2087
Summary of the method: as §1

[17] = system: NCI-H3122
Summary of the method: as §1

[18] = system: NCI-H520
Summary of the method: as §1

[19] = system: PC-14
Summary of the method: as §1

[20] = system: RERF-LC-KJ
Summary of the method: as §1

[21] = system: SK-LU-1
Summary of the method: as §1

[22] = system: SW 1573
Summary of the method: as §1

[23] = system: SW 900
Summary of the method: as §1

For `Cc1cn(-c2cc(NC(=O)c3ccc(C)c(Nc4nccc(-c5cccnc5)n4)c3)cc(C(F)(F)F)c2)cn1` [Nilotinib] + Nc1nc2[nH]cc(CCc3ccc(C(=O)N[C@@H](CCC(=O)O)C(=O)O)cc3)c2c(=O)[nH]1 [Pemetrexed] (partner 0.2 µM), the relative viability ([1]; first compound 0.003162 µM) was 0.963, the relative viability ([1]; first compound 0.01 µM) was 0.952 and the relative viability ([1]; first compound 0.1 µM) was 0.852. The relative viability ([2]; first compound 0.001 µM) was 0.975, the relative viability ([2]; first compound 0.003162 µM) was 1.17 and the relative viability ([2]; first compound 0.01 µM) was 1.55. For the same molecule, the relative viability ([2]; first compound 0.03162 µM) was 1.13, the relative viability ([2]; first compound 0.1 µM) was 1.15 and the relative viability ([3]; first compound 0.001 µM) was 0.187. For the same molecule, the relative viability ([3]; first compound 0.003162 µM) was 0.183, the relative viability ([3]; first compound 0.01 µM) was 0.19 and the relative viability ([3]; first compound 0.03162 µM) was 0.163. It also gave a relative viability ([3]; first compound 0.1 µM) of 0.163, a relative viability ([4]; first compound 0.001 µM) of 0.33 and a relative viability ([4]; first compound 0.003162 µM) of 0.27. It also gave a relative viability ([4]; first compound 0.01 µM) of 0.471, a relative viability ([4]; first compound 0.03162 µM) of 0.353 and a relative viability ([5]; first compound 0.001 µM) of 0.427. For the same molecule, the relative viability ([5]; first compound 0.003162 µM) was 0.618, the relative viability ([5]; first compound 0.01 µM) was 0.471 and the relative viability ([5]; first compound 0.03162 µM) was 0.46. It also gave a relative viability ([5]; first compound 0.1 µM) of 0.437, a relative viability ([6]; first compound 0.001 µM) of 0.239 and a relative viability ([6]; first compound 0.003162 µM) of 0.324. For the same molecule, the relative viability ([6]; first compound 0.01 µM) was 0.195, the relative viability ([6]; first compound 0.03162 µM) was 0.309 and the relative viability ([6]; first compound 0.1 µM) was 0.171. For the same molecule, the relative viability ([7]; first compound 0.001 µM) was 0.662, the relative viability ([7]; first compound 0.003162 µM) was 0.574 and the relative viability ([7]; first compound 0.01 µM) was 0.613. For the same molecule, the relative viability ([7]; first compound 0.1 µM) was 0.66, the relative viability ([8]; first compound 0.001 µM) was 0.272 and the relative viability ([8]; first compound 0.003162 µM) was 0.224. For the same molecule, the relative viability ([8]; first compound 0.03162 µM) was 0.217, the relative viability ([8]; first compound 0.1 µM) was 0.245 and the relative viability ([9]; first compound 0.001 µM) was 0.447. It also gave a relative viability ([9]; first compound 0.003162 µM) of 0.409, a relative viability ([9]; first compound 0.01 µM) of 0.438 and a relative viability ([9]; first compound 0.03162 µM) of 0.467. It also gave a relative viability ([9]; first compound 0.1 µM) of 0.351, a relative viability ([10]; first compound 0.001 µM) of 0.158 and a relative viability ([10]; first compound 0.003162 µM) of 0.202. For the same molecule, the relative viability ([10]; first compound 0.01 µM) was 0.177, the relative viability ([10]; first compound 0.03162 µM) was 0.225 and the relative viability ([10]; first compound 0.1 µM) was 0.155. It also gave a relative viability ([11]; first compound 0.001 µM) of 0.28, a relative viability ([11]; first compound 0.003162 µM) of 0.34 and a relative viability ([11]; first compound 0.01 µM) of 0.343. For the same molecule, the relative viability ([11]; first compound 0.03162 µM) was 0.276, the relative viability ([11]; first compound 0.1 µM) was 0.311 and the relative viability ([12]; first compound 0.001 µM) was 0.768. For the same molecule, the relative viability ([12]; first compound 0.003162 µM) was 0.78, the relative viability ([12]; first compound 0.01 µM) was 0.846 and the relative viability ([12]; first compound 0.03162 µM) was 0.717. For the same molecule, the relative viability ([12]; first compound 0.1 µM) was 0.9, the relative viability ([13]; first compound 0.001 µM) was 0.623 and the relative viability ([13]; first compound 0.003162 µM) was 0.899. For the same molecule, the relative viability ([13]; first compound 0.01 µM) was 0.72, the relative viability ([13]; first compound 0.03162 µM) was 0.525 and the relative viability ([13]; first compound 0.1 µM) was 0.709. It also gave a relative viability ([14]; first compound 0.001 µM) of 0.926, a relative viability ([14]; first compound 0.003162 µM) of 0.964 and a relative viability ([14]; first compound 0.01 µM) of 0.919. It also gave a relative viability ([14]; first compound 0.03162 µM) of 1.06, a relative viability ([14]; first compound 0.1 µM) of 0.989 and a relative viability ([15]; first compound 0.001 µM) of 0.213. The relative viability ([15]; first compound 0.003162 µM) was 0.264, the relative viability ([15]; first compound 0.01 µM) was 0.223 and the relative viability ([15]; first compound 0.03162 µM) was 0.189. It also gave a relative viability ([15]; first compound 0.1 µM) of 0.14, a relative viability ([16]; first compound 0.001 µM) of 0.67 and a relative viability ([16]; first compound 0.003162 µM) of 0.745. For the same molecule, the relative viability ([16]; first compound 0.01 µM) was 0.555, the relative viability ([16]; first compound 0.03162 µM) was 0.614 and the relative viability ([16]; first compound 0.1 µM) was 0.341. For the same molecule, the relative viability ([17]; first compound 0.001 µM) was 0.18, the relative viability ([17]; first compound 0.003162 µM) was 0.226 and the relative viability ([17]; first compound 0.01 µM) was 0.212. The relative viability ([17]; first compound 0.03162 µM) was 0.2, the relative viability ([17]; first compound 0.1 µM) was 0.195 and the relative viability ([18]; first compound 0.001 µM) was 0.591. The relative viability ([18]; first compound 0.003162 µM) was 0.674, the relative viability ([18]; first compound 0.01 µM) was 0.717 and the relative viability ([18]; first compound 0.03162 µM) was 0.578. It also gave a relative viability ([18]; first compound 0.1 µM) of 0.556, a relative viability ([19]; first compound 0.001 µM) of 0.139 and a relative viability ([19]; first compound 0.003162 µM) of 0.19. For the same molecule, the relative viability ([19]; first compound 0.01 µM) was 0.0904, the relative viability ([19]; first compound 0.03162 µM) was 0.0585 and the relative viability ([19]; first compound 0.1 µM) was 0.0757. For the same molecule, the relative viability ([20]; first compound 0.001 µM) was 0.508, the relative viability ([20]; first compound 0.003162 µM) was 0.6 and the relative viability ([20]; first compound 0.01 µM) was 0.454. For the same molecule, the relative viability ([20]; first compound 0.03162 µM) was 0.422, the relative viability ([20]; first compound 0.1 µM) was 0.274 and the relative viability ([21]; first compound 0.001 µM) was 0.867. It also gave a relative viability ([21]; first compound 0.003162 µM) of 1.09, a relative viability ([21]; first compound 0.01 µM) of 0.949 and a relative viability ([21]; first compound 0.03162 µM) of 0.524. The relative viability ([21]; first compound 0.1 µM) was 0.415, the relative viability ([22]; first compound 0.001 µM) was 0.801 and the relative viability ([22]; first compound 0.003162 µM) was 0.994. The relative viability ([22]; first compound 0.01 µM) was 0.91, the relative viability ([22]; first compound 0.03162 µM) was 0.541 and the relative viability ([22]; first compound 0.1 µM) was 0.171. For the same molecule, the relative viability ([23]; first compound 0.003162 µM) was 0.459, the relative viability ([23]; first compound 0.01 µM) was 0.38 and the relative viability ([23]; first compound 0.03162 µM) was 0.239. For the same molecule, the relative viability ([23]; first compound 0.1 µM) was 0.245.
